Key:
IL-8 = assay: HCPt-induced IL-8 secretion in three-dimensional nasal epithelial cultures from an allergic donor, ELISA; assay type: cell-based, human; conditions: 30 μl of 20 mM HCPt, 16 hours exposure; peak of IL-8 secretion at Day 4
[1] = system: human nasal epithelial cells; assay: Cilia beating frequency (CBF) in three-dimensional nasal epithelial cultures from an allergic donor; assay type: cell-based; conditions: Day 4, versus control

## [Cl][Pt-2]([Cl])([Cl])([Cl])([Cl])[Cl].[NH4+].[NH4+] [HCPt, Ammonium hexachloroplatinate]
IL-8
  IL-8 secretion with HCPt alone: efficiently induced inflammation
[1]
  cilia beating frequency (CBF) with HCPt alone: reduced CBF versus control
